Test results from PubChem BioAssay (NCI).
Where “and” joins values, the source holds several entries; their conditions need not be identical. Equal values may be shown once.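 Dose response: 5 concentrations. Exposure: 48 h. Format: 96-well plates. Endpoint: linear interpolation; highest concentration if not reached. Here, GI50 denotes the concentration required for 50% inhibition of growth. At the TGI there is no net growth.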

What was measured:
Assay in all cases: NCI tumour cell line growth inhibition, 48 h
MDA-N = system: MDA-N
XF 498 CNS = system: XF 498 CNS
M19-MEL melanoma = system: M19-MEL melanoma
HOP-18 NSCLC = system: HOP-18 NSCLC
DMS 273 small cell lung = system: DMS 273 small cell lung
SNB-78 CNS = system: SNB-78 CNS
DLD-1 colon = system: DLD-1 colon
DMS 114 small cell lung = system: DMS 114 small cell lung
RXF-631 renal = system: RXF-631 renal
P388 leukemia = system: P388 leukemia
P388/ADR leukemia = system: P388/ADR leukemia
SN12K1 renal = system: SN12K1 renal

SMILES	TGI (XF 498 CNS)	TGI (M19-MEL melanoma)	TGI (HOP-18 NSCLC)	TGI (DMS 273 small cell lung)	TGI (SNB-78 CNS)	TGI (DLD-1 colon)	TGI (DMS 114 small cell lung)	TGI (RXF-631 renal) [µM]	other results
COc1ccc2c(c1OC)C(C(Cl)(Cl)Cl)N1CCc3cc4c(cc3C1=C2)OCO4 (stereo not drawn)									TGI (MDA-N): 41 µM
Cc1c(N)nc(C(CC(N)=O)NCC(N)C(N)=O)nc1C(=O)NC(C(=O)NC(C)C(O)C(C)C(=O)NC(C(=O)NCCc1nc(-c2nc(C(=O)NCCCNC(C)c3ccccc3)cs2)cs1)C(C)O)C(OC1OC(CO)C(O)C(O)C1OC1OC(CO)C(O)C(OC(N)=O)C1O)c1cnc[nH]1 (stereo not drawn)	50 µM	50 µM	46.8 µM	4.95 µM	> 50 µM	50 µM	8.75 µM		GI50 (MDA-N): > 100 µM; TGI (MDA-N): > 100 µM
N/N=C(\c1nc2ccc(Cl)cc2[nH]c1=O)C(O)c1ccc(Cl)c(Cl)c1 (stereo not drawn)	> 100 µM	> 100 µM		> 100 µM	> 100 µM	> 100 µM	> 100 µM	> 100	
O=S(=O)(N=NC=C1c2ccccc2N(O)c2ccccc21)c1ccc(Cl)cc1		> 100 µM	> 100 µM	> 100 µM	> 100 µM	> 100 µM	> 100 µM	> 100	
Cc1ccc(S(=O)(=O)c2ccc(C)cc2[N+](=O)[O-])cc1		> 100 µM	> 100 µM	> 100 µM	> 100 µM	> 100 µM	73.3 µM		
COC(=O)/C(C#N)=C(\N)C(Cl)(Cl)Cl	4.36 µM	6.35 µM		12.4 µM	31.3 µM	3.52 µM	11.1 µM	6.02	
CC(=O)NNc1nc(C)c(C(=O)/C=C/c2ccc(Cl)cc2)s1		> 100 µM	> 100 µM	> 100 µM	> 100 µM	> 100 µM	> 100 µM		
CCOC(=O)C1=C(C)N(NC(N)=O)C2(N)N(NC(N)=O)C(C)=C(C(=O)OCC)C12C(=O)OCC (stereo not drawn)	> 100 µM	> 100 µM		> 100 µM		> 100 µM	> 100 µM		
Cc1[nH]c(N)nc(=S)c1CCC(=O)O									TGI (MDA-N): > 100 µM
COC1CCC(OC)C(C2(C3CC(OC)CCC3OC)OC(=O)c3ccccc32)C1 (stereo not drawn)	> 100 µM		> 100 µM	> 100 µM	> 100 µM	> 100 µM	> 100 µM	> 100	
Nc1nc(SCc2ccccc2Cl)cc(C(=O)O)n1									TGI (MDA-N): > 100 µM
NCCNC(=O)c1cccc2cc3ccccc3nc12	6.04 µM	5.34 µM	> 40.9 µM	> 100 µM	37 µM	18.6 µM	6.66 µM	16.7	
N#CC(C#N)=Cc1ccc(CP(=O)(O)O)cc1	> 100 µM	> 100 µM	> 100 µM	> 100 µM	> 100 µM	> 100 µM	> 100 µM	> 100	
CCC1(OC(=O)CN)C(=O)OCc2c1cc1n(c2=O)Cc2cc3ccccc3nc2-1 (stereo not drawn)	0.431 µM	0.237 µM	28.4 µM		> 100 µM	> 100 µM	0.461 µM and 1.02 µM		GI50 (XF 498 CNS): 0.0328 µM; GI50 (MDA-N): 0.122 µM and 0.36 µM; GI50 (M19-MEL melanoma): 0.0174 µM; GI50 (SNB-78 CNS): 0.53 µM
Nc1ccc(COC(O)CN2CCCCC2)cc1[N+](=O)[O-] (stereo not drawn)									TGI (MDA-N): > 100 µM
CCCN(CCC)C(=O)c1nc(N)nc(-c2ccc(OC)cc2)c1-c1ccc(OC)cc1	> 100 µM		> 100 µM	> 100 µM	> 100 µM	> 100 µM	> 100 µM	> 100	
CCCCc1c2cnccc2c(CCCC)c2c1[nH]c1ccccc12	13.3 µM	24.9 µM	24.8 µM	27.9 µM	77.8 µM	> 100 µM	18.3 µM		
CCOC(=O)C12C(C(=O)OC)=C(C)N(NC(=O)Nc3ccccc3)C1(N)N(NC(=O)Nc1ccccc1)C(C)=C2C(=O)OC (stereo not drawn)	59.1 µM	33.2 µM	> 86 µM	> 72.2 µM	> 100 µM	> 100 µM	83.6 µM		
CCCCCCCC/C=C1\CCC(CN2CCOCC2)C1=O (stereo not drawn)	27.5 µM	26.3 µM	25.8 µM		31.8 µM	8.03 µM	20.7 µM	64.8	TGI (MDA-N): 22.4 µM
CCCCCCCCCCCCCCCCOP(=O)([O-])OCC[N+](C)(C)C	60.9 µM	41.3 µM	> 100 µM	25.8 µM	> 100 µM	62.2 µM	> 100 µM		TGI (MDA-N): 54.8 µM; TGI (P388 leukemia): > 66.3 µM; TGI (P388/ADR leukemia): > 86.6 µM
CC(C(=O)c1ccccc1)C1(O)C(=O)Nc2ccc(Cl)cc21 (stereo not drawn)	> 100 µM	31.6 µM	> 100 µM		> 100 µM	> 100 µM	> 100 µM		
COc1ccc(C(=O)CC2=Nc3nnc(CCCCCCCc4nnc5n4C(=O)C(CC(=O)c4ccc(OC)cc4)=N5)n3C2=O)cc1	> 100 µM	> 100 µM	> 100 µM			> 100 µM	> 100 µM	> 100	

SMILES	TGI (XF 498 CNS)	TGI (M19-MEL melanoma)	TGI (HOP-18 NSCLC)	TGI (DMS 273 small cell lung)	TGI (SNB-78 CNS)	TGI (DLD-1 colon)	TGI (DMS 114 small cell lung)	TGI (RXF-631 renal) [µM]	other results
COc1cc2c(cc1OC)C1Cc3ccc(OC)c(OC)c3C[N+]1([O-])CC2 (stereo not drawn)	> 100 µM				> 100 µM	> 100 µM			
COc1cc(OC)c(OC)cc1/C=C/c1cnnc2ccccc12									TGI (MDA-N): > 10 µM
C1CN(P2(N3CC3)=NP(N3CC3)(N3CC3)=NP(N3CC3)(N3CC3)=N2)CCO1 (stereo not drawn)	> 100 µM	> 100 µM	> 100 µM	> 100 µM	> 100 µM	> 100 µM	> 100 µM		
CC(C)c1cccc(O)c(=O)c1	> 100 µM	> 59.3 µM	> 100 µM	> 48.4 µM	> 100 µM	> 100 µM	16 µM	> 100	
CO[C@H]1C[C@](C)(O)Cc2cc3c(c(O)c21)C(=O)c1c(O)cc2c(c1C3=O)O[C@@H]1O[C@@]2(C)[C@H](O)[C@@H](N(C)C)[C@@H]1O	2.51 µM and 0.689 µM	2.56 µM and 9.81 µM	4.3 µM and 8.6 µM	2.79 µM and 3.32 µM	9.66 µM and 21.8 µM	4.08 µM and 22.3 µM	2.32 µM and 1.71 µM	2.71	GI50 (XF 498 CNS): 1.15 µM; TGI (MDA-N): 10.6 µM; GI50 (HOP-18 NSCLC): 1.29 µM; TGI (SN12K1 renal): 2.15 µM; GI50 (DMS 273 small cell lung): 0.188 µM; GI50 (SNB-78 CNS): 5.05 µM; TGI (P388 leukemia): 3.3 µM; TGI (P388/ADR leukemia): 16.1 µM; GI50 (DLD-1 colon): 1.67 µM; GI50 (DMS 114 small cell lung): 0.533 µM
O=C1CNC(=O)c2[nH]cnc2N1	> 100 µM	> 100 µM	> 100 µM	> 100 µM	> 100 µM	> 100 µM	> 100 µM	> 100	
CC1CC(C)C2OC2(C)C[C@H](C)C(=O)NC(C)C(=O)N(C)[C@H](Cc2c(Br)[nH]c3ccccc23)C(=O)N[C@@H](c2ccc(O)cc2)CC(=O)O1 (stereo partly drawn)	4.31 µM			83.1 µM	0.763 µM	> 100 µM	2.63 µM	> 100	
COc1ccc2c(c1)NC1(O)c3ccccc3C(=O)C21O (stereo not drawn)	> 100 µM	> 100 µM	> 100 µM	> 100 µM	> 100 µM	> 100 µM	> 100 µM	> 100	
COC(=O)C1CC(OC(C)=O)C=C2C(=O)CCC21 (stereo not drawn)		59.9 µM	64.3 µM	43.8 µM	72.8 µM	40.7 µM	30.8 µM	86.8	
CC(C)(C)N/N=C(\C(=O)Nc1nc(=S)[nH][nH]1)C1C(=O)Nc2ccccc2S1=O (stereo not drawn)	> 100 µM	> 100 µM	> 100 µM	> 100 µM	> 100 µM	> 100 µM	> 100 µM	> 100	
NC(=O)c1cccc(OCC(O)CO)c1 (stereo not drawn)									TGI (MDA-N): > 100 µM
COc1cc(NS(C)(=O)=O)ccc1NCc1c2ccccc2nc2ccccc12	65.9 µM			> 100 µM		85.4 µM	58.2 µM	71.3	
Cc1nc(N)nc(N)c1CCCc1ccccc1	> 100 µM	> 100 µM			> 100 µM	> 100 µM	> 100 µM		
O=C(Nc1ccccc1-c1nn(CN2CCNCC2)c(=S)n(CN2CCNCC2)c1=O)C(F)(F)F		32.1 µM	63.9 µM	35.3 µM	62.4 µM	33.3 µM	34 µM	46.8	
Cc1cc(C)c(C(=O)O)c(SSc2cc(C)cc(C)c2C(=O)O)c1	> 100 µM	> 100 µM		> 100 µM	> 100 µM	> 100 µM	> 100 µM	> 100	
C=CCC1(C(=O)OC(C)(C)C)C(OC)=C(C(=O)OC(C)(C)C)C2C1C(C(=O)OC(C)(C)C)=C(OC)C2(CC=C)C(=O)OC(C)(C)C (stereo not drawn)	> 100 µM	> 100 µM	> 100 µM			> 100 µM	> 100 µM		
CC1=NOC(=O)/C1=C/c1ccc([N+](=O)[O-])cc1	> 100 µM		> 100 µM	> 100 µM	> 100 µM	> 100 µM	> 100 µM	> 100	
CC(=O)NC(CSC1=C2NC(=O)\C=C/C=C/C=C\C(C)C(O)CC(=O)/C(C)=C\CC(O)/C=C/C(C)C(O)C(C)C=C(C)C(=O)c3c(O)c(C)cc(c3C1=O)C2=O)C(=O)O (stereo not drawn)									TGI (MDA-N): > 100 µM
Cc1cccc(C)c1N1C(=O)C(=O)C(c2nc3ccccc3s2)/C(=N/NC(=O)c2ccccc2O)C1=O (stereo not drawn)	> 100 µM	> 100 µM	88.6 µM	22.5 µM	> 100 µM	> 100 µM	60.9 µM	> 100	
C/C(CC(=O)Nc1ccccc1C)=N/NS(=O)(=O)c1ccc(C)cc1	> 100 µM	> 100 µM		> 100 µM	> 100 µM	> 100 µM		> 100	
CCOc1ccc(NCC2CC/C(=C\c3ccccc3OC)C2=O)cc1 (stereo not drawn)		26.3 µM	28.8 µM	6.76 µM	44.3 µM	13.6 µM	28.2 µM	42.5	
